Data taken from US7501430B2 (ArQule, Inc., priority 2006, dated 2009).
pIC50: −log10 of the molar value.

biological target: T1, mutant B-RAF (Homo sapiens, UniProt P15056, V600E); experiment: RAF biochemical assay (MEK-1 phosphorylation, anti-phospho MEK1/2 detection); conditions: not given
T1 construct: purchased Upstate (Charlottesville, Va.)
How it was run: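 Detection is by ELISA: after a 30 min room-temperature reaction, plate-captured GST-MEK-1 is probed with anti-phospho MEK1/2, then an AP-tagged secondary antibody with fluorescent Attophos read-out.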

T1 sequence (P15056 whole entry V600E): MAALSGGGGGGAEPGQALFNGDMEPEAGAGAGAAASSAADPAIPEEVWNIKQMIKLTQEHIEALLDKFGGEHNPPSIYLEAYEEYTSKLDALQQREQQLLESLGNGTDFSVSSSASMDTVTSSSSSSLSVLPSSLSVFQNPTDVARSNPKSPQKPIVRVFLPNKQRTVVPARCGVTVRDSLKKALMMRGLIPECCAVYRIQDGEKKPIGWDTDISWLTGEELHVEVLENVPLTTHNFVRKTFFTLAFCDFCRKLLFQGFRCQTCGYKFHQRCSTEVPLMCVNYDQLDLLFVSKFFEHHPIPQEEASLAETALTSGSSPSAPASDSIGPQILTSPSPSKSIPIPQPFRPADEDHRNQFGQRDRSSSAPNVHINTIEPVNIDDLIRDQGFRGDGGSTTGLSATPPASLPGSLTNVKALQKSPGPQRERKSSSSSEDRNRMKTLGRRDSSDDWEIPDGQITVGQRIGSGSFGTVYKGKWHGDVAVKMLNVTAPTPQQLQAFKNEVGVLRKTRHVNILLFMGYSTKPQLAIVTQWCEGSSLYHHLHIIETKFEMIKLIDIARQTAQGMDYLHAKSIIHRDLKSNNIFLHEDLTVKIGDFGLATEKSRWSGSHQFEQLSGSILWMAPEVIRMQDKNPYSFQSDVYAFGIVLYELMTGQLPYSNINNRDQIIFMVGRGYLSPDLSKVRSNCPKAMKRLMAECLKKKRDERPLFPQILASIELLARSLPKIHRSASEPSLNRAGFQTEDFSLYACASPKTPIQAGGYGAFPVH

Point of comparison: `O=C(c1ccc(F)cc1)N1CCC[C@@H](Nc2nccc(-c3c(-c4ccc(F)cc4)nc4occn34)n2)C1` [Example 28, N-[(3R)-1-(4-fluorobenzoyl)piperidin-3-yl]-4-[6-(4-fluorophenyl)imi-dazo[2,1-b][1,3]oxazol-5-yl]pyrimidin-2-amine], pIC50 6.74. Against it:
- CC(C)(N)C(=O)N1CCC(Nc2nccc(-c3c(-c4ccc(F)cc4)nc4occn34)n2)CC1 [Example 191, N-[1-(2-amino-2-methylpropanoyl)piperidin-4-yl]-4-[6-(4-fluorophenyl)imi-dazo[2,1-b][1,3]oxazol-5-yl]pyrimidin-2-amine] — 1.32 log units lower, 5.42

same assay, conditions: @ 10 uM

With `O=S(=O)(c1cccc(C(F)(F)F)c1)N1CCC[C@@H](Nc2nccc(-c3c(-c4ccc(F)cc4)nc4occn34)n2)C1` [Example 46, 4-[6-(4-fluorophenyl)imi-dazo[2,1-b][1,3]oxazol-5-yl]-N-((3R)-1-{[3-(trifluoro-methyl)phenyl]sulfonyl}piper-idin-3-yl)pyrimidin-2-amine] the “Mutant B-RAF % inhibition” value was 19 @ 10 uM %.

same assay, conditions: @ 10 uM; read-out: Mutant B-RAF % inhibition

Point of comparison: `O=C(Nc1ccc(F)c(F)c1)N1CCC[C@@H](Nc2nccc(-c3c(-c4ccc(F)cc4)nc4occn34)n2)C1` [Example 73, (3R)-N-(3,4-difluorophenyl)-3-({4-[6-(4-fluorophenyl)imidazo[2,1-b][1,3]oxazol-5-yl]pyrimidin-2-yl}amino)piperidine-1-carboxamide], inhibition at 10 µM 37%. Against it:
- COc1cccc(-c2nc3sccn3c2-c2ccnc(N[C@@H]3CCCN(C[C@@H]4COC(C)(C)O4)C3)n2)c1 [Example 146, N-((3R)-1-{[(4R)-2,2-dimethyl-1,3-dioxolan-4-yl]methyl}piper-idin-3-yl)-4-[6-(3-methoxy-phenyl)imidazo[2,1-b][1,3]thiazol-5-yl]pyrimidin-2-amine] — higher, 43%
- CN(C)c1ccc(C(=O)N2CCC(Nc3nccc(-c4c(-c5ccc(F)cc5)nc5occn45)n3)CC2)cc1 [Example 222, N-{1-[4-(dimethylamino)benzoyl]piperidin-4-yl}-4-[6-(4-fluorophenyl)imidazo[2,1-b][1,3]oxazol-5-yl]pyrimidin-2-amine] — higher, 45%
- O=C(NCc1ccco1)N1CCC[C@@H](Nc2nccc(-c3c(-c4ccc(F)cc4)nc4occn34)n2)C1 [Example 25, (3R)-3-({4-[6-(4-fluorophenyl)imidazo[2,1-b][1,3]oxazol-5-yl]pyrimidin-2-yl}amino)-N-(2-furylmethyl)piperidine-1-carboxamide] — lower, 35%
- Cc1ccccc1S(=O)(=O)N1CCC(Nc2nccc(-c3c(-c4ccc(F)cc4)nc4occn34)n2)CC1 [Example 235, 4-[6-(4-fluorophenyl)imidazo[2,1-b][1,3]oxazol-5-yl]-N-{1-[(2-methylphenyl)sulfonyl]piperidin-4-yl}pyrimidin-2-amine] — lower, 30%
- C[C@H](NC(=O)N1CCC(Nc2nccc(-c3c(-c4ccc(F)cc4)nc4occn34)n2)CC1)c1ccccc1 [Example 195, 4-({4-[6-(4-fluorophenyl)imidazo[2,1-b][1,3]oxazol-5-yl]pyrimidin-2-yl}amino)-N-[(1S)-1-phenylethyl]piperidine-1-carboxamide] — higher, 56%
- O=C(NCc1ccccc1)N1CCC[C@@H](Nc2nccc(-c3c(-c4ccc(F)c(F)c4)nc4sccn34)n2)C1 [Example 87, (3R)-N-benzyl-3-({4-[6-(3,4-difluorophenyl)imidazo[2,1-b][1,3]thiazol-5-yl]pyrimidin-2-yl}amino)piperidine-1-carboxamide] — higher, 53%
- Fc1ccc(-c2nc3occn3c2-c2ccnc(NC3CCNCC3)n2)c(F)c1 [Example 300, 4-[6-(2,4-difluorophenyl)imidazo[2,1-b][1,3]oxazol-5-yl]-N-piperidin-4-ylpyrimidin-2-amine] — higher, 65%

same assay, conditions: read-out: Mutant B-RAF % inhibition

Point of comparison: `O=S(=O)(c1cccc(F)c1)N1CCC[C@@H](Nc2nccc(-c3c(-c4ccc(F)cc4)nc4occn34)n2)C1` [Example 52, 4-[6-(4-fluorophenyl)imi-dazo[2,1-b][1,3]oxazol-5-yl]-N-{(3R)-1-[(3-fluorophenyl)sulfonyl]piperidin-3-yl}pyr-imidin-2-amine], inhibition at 10 µM 55%. Against it:
- COc1cccc(-c2nc3sccn3c2-c2ccnc(N[C@@H]3CCCN(C(=O)Nc4ccc(N(C)C)cc4)C3)n2)c1 [Example 84, (3R)-N-[4-(dimethylamino)phenyl]-3-({4-[6-(3-methoxyphenyl)imi-dazo[2,1-b][1,3]thiazol-5-yl]pyrimidin-2-yl}amino)piperidine-1-carboxamide] — lower, 19%

same assay, conditions: read-out: Mutant B-RAF IC50

Point of comparison: `CCNC(=O)N1CCC(Nc2nccc(-c3c(-c4ccc(F)c(F)c4)nc4sccn34)n2)CC1` [Example 218, 4-({4-[6-(3,4-difluorophenyl)imidazo[2,1-b][1,3]thiazol-5-yl]pyrimidin-2-yl}amino)-N-ethylpiperidine-1-carboxamide], pIC50 5.91. Against it:
- CCS(=O)(=O)N1CCC[C@@H](Nc2nccc(-c3c(-c4cccc(O)c4)nc4sccn34)n2)C1 [Example 373, 3-[5-(2-{[(3R)-1-(ethylsulfonyl)piperidin-3-yl]amino}pyrimidin-4-yl)imidazo[2,1-b][1,3]thiazol-6-yl]phenol] — lower, < 5.52
- NC(=O)Oc1cccc(-c2nc3sccn3c2-c2ccnc(N[C@@H]3CCCN(S(=O)(=O)c4ccc(Cl)cc4)C3)n2)c1 [Example 364, 3-{5-[2-({(3R)-1-[(4-chlorophenyl)sulfonyl]piperidin-3-yl}amino)pyrimidin-4-yl]imidazo[2,1-b][1,3]thiazol-6-yl}phenyl carbamate] — 2.24 log units higher, 8.15
- COc1cc(-c2nc3sccn3c2-c2ccnc(NC3CCN(S(=O)(=O)C4CC4)CC3)n2)ccc1F [Example 349, N-[1-(cyclopropylsulfonyl)piperidin-4-yl]-4-[6-(4-fluoro-3-methoxyphenyl)imidazo[2,1-b][1,3]thiazol-5-yl]pyrimidin-2-amine] — 0.32 log units lower, 5.59
- COc1ccccc1-c1nc2sccn2c1-c1ccnc(NC2CCNCC2)n1 [Example 261, 4-[6-(2-methoxyphenyl)imidazo[2,1-b][1,3]thiazol-5-yl]-N-piperidin-4-ylpyrimidin-2-amine] — lower, < 5.52
- O=C(O)c1ccc(S(=O)(=O)N2CCC[C@@H](Nc3nccc(-c4c(-c5ccc(F)cc5)nc5occn45)n3)C2)cc1 [Example 59, 4-{[(3R)-3-({4-[6-(4-fluorophenyl)imidazo[2,1-b][1,3]oxazol-5-yl]pyrimidin-2-yl}amino)piperidin-1-yl]sulfonyl}benzoic acid] — 0.33 log units higher, 6.24
- Oc1cccc(-c2nc3occn3c2-c2ccnc(N[C@@H]3CCCNC3)n2)c1 [Example 333, 3-(5-{2-[(3R)-piperidin-3-ylamino]pyrimidin-4-yl}imidazo[2,1-b][1,3]oxazol-6-yl}phenol] — within 0.2 log units, 6.04
- O=C(NS(=O)(=O)c1ccc(Cl)cc1)N1CCC(Nc2nccc(-c3c(-c4cccc(O)c4)nc4occn34)n2)CC1 [Example 323, N-[(4-chlorophenyl)sulfonyl]-4-({4-[6-(3-hydroxyphenyl)imidazo[2,1-b][1,3]oxazol-5-yl]pyrimidin-2-yl}amino)piperidine-1-carboxamide] — the same, 5.91
- O=C(c1cccc2cccnc12)N1CCC(Nc2nccc(-c3c(-c4ccc(F)cc4)nc4occn34)n2)CC1 [Example 161, 4-[6-(4-fluorophenyl)Imidazo[2,1-b][1,3]oxazol-5-yl]-N-[1-(quinolin-8-ylcarbonyl)piperidin-4-yl]pyrimidin-2-amine] — within 0.2 log units, 5.80
- NCC(=O)N1CCC(Nc2nccc(-c3c(-c4ccc(F)cc4)nc4occn34)n2)CC1 [Example 190, N-[1-(aminoacetyl)piperidin-4-yl]-4-[6-(4-fluorophenyl)imidazo[2,1-b][1,3]oxazol-5-yl]pyrimidin-2-amine] — within 0.2 log units, 5.94
- O=S(=O)(c1ccc(Cl)cc1)N1CCC[C@@H](Nc2nccc(-c3c(-c4ccc(F)cc4)nc4sccn34)n2)C1 [Example 98, N-{(3R)-1-[(4-chlorophenyl)sulfonyl]piperidin-3-yl}-4-[6(4-fluorophenyl)imidazo[2,1-b][1,3]thiazol-5-yl]pyrimidin-2-amine] — 1.53 log units higher, 7.44
- CCNC(=O)N1CCC(Nc2nccc(-c3c(-c4ccc(F)cc4)nc4occn34)n2)CC1 [Example 156, N-ethyl-4-({4-[6-(4-fluorophenyl)imidazo[2,1-b][1,3]oxazol-5-yl]pyrimidin-2-yl}amino)piperidine-1-carboxamide] — 0.46 log units higher, 6.37
- CC(=O)Nc1cccc(-c2nc3sccn3c2-c2ccnc(N[C@@H]3CCCN(S(=O)(=O)c4ccc(Cl)cc4)C3)n2)c1 [Example 123, N-(3-{5-[2-({(3R)-1-[(4-chlorophenyl)sulfonyl]piperidin-3-yl}amino)pyrimidin-4-yl]imidazo[2,1-b][1,3]thiazol-6-yl}phenyl)acetamide] — 0.76 log units higher, 6.67
- O=S(=O)(c1ccc(Cl)cc1)N1CCC[C@@H](Nc2nccc(-c3c(-c4ccc(Cl)c(O)c4)nc4sccn34)n2)C1 [Example 101, 2-chloro-5-{5-[2-({(3R)-1-[(4-chlorophenyl)sulfonyl]piperidin-3-yl}amino)pyrimidin-4-yl]imidazo[2,1-b][1,3]thiazol-6-yl}phenol] — 2.05 log units higher, 7.96
- O=C(NCc1ccco1)N1CCC(Nc2nccc(-c3c(-c4ccc(F)cc4)nc4occn34)n2)CC1 [Example 176, 4-({4-[6-(4-fluorophenyl)imidazo[2,1-b][1,3]oxazol-5-yl]pyrimidin-2-yl}amino)-N-(2-furylmethyl)piperidine-1-carboxamide] — 1.18 log units higher, 7.09
- O=Cc1ccc(-c2nc3sccn3c2-c2ccnc(N[C@@H]3CCCN(S(=O)(=O)c4ccc(Cl)cc4)C3)n2)cc1 [Example 385, 4-{5-[2-({(3R)-1-[(4-chlorophenyl)sulfonyl]piperidin-3-yl}amino)pyrimidin-4-yl]imidazo[2,1-b][1,3]thiazol-6-yl}benzaldehyde] — within 0.2 log units, 6.06
- O=S(=O)(C1CC1)N1CCC(Nc2nccc(-c3c(-c4ccc(F)c(O)c4)nc4sccn34)n2)CC1 [Example 354, 5-[5-(2-{[1-(cyclopropylsulfonyl)piperidin-4-yl]amino}pyrimidin-4-yl)imidazo[2,1-b][1,3]thiazol-6-yl]-2-fluorophenol] — 4.61 log units higher, 10.52
